Experimental data published in US20230303712A1, “METHODS OF TREATING GLIOBLASTOMA” (Ramot at Tel-Aviv University Ltd., priority 2020, published 2023).
“Also recorded” adds a separate entry of the source.

How the values were obtained:
U251 and PD-GB4 GB cells = test: In vitro cytotoxicity of SELPi (annexin-FITC/PI apoptosis-necrosis staining); format: cell-based, human
Method: (§1) Flow cytometry. For flow cytometry assays, cells were harvested using a cell scraper, and were then washed with PBS followed by additional washes with PBS supplemented with 1% BSA and 5 mM EDTA (FACS buffer). Tumor spheroids were recovered from Matrigel using Cell Recovery Solution (Corning) and washed with FACS buffer. To validate the purity of the microglia preparations, CD11b isolated cells or human microglia were incubated with TMEM119 and P2Y12-labeled antibodies for 1 h. For human TMEM119, primary antibody was unlabeled and cells were washed and incubated with secondary, Alexa 488 conjugated antibody. To assess P-Selectin and PSGL-1 expression, GB cells and microglia were seeded alone, co-cultured in a 2D petri dish, or grown as spheroids seeded in Matrigel. Cells were treated with control medium or CM for 48 h. They were then incubated with mouse anti-human P-Selectin antibody for 1 h on ice, and then were washed, and incubated with Alexa-488 labeled anti-mouse IgG binding protein for 1 h on ice. Alternatively, cells were incubated with rat anti-human PSGL antibody, and then were washed, and incubated with goat anti-rat, Alexa-488 labeled antibody for 1 h on ice. […] Fluorescence intensity was assessed using either an Attune flow cytometer (Life Technologies) or a Gallios™ flow cytometer (Beckman Coulter, USA) and the results were analyzed by Kaluza software (Beckman Coulter, USA).

primary human microglia = test: Nitric oxide secretion evaluation; format: cell-based; conditions: added to rSELP; SELPi 0.5 µM, antibodies 2.5 µg/ml, 24 h
Method: Nitric oxide secretion evaluation. Primary human/murine microglia (1 × 10^5 cells/ml) were seeded in PLL-coated plates. Twenty-four hours post-seeding, cells were treated with: 0% serum DMEM, 0% serum DMEM supplemented rSELP (1.5 µg/ml), 0% serum DMEM exposed to rSELP and SELPi (0.5 µM), 0% serum DMEM exposed to rSELP and anti-PSGL-1 neutralizing antibody (2.5 µg/ml), 0% serum DMEM exposed to rSELP and anti-CD44 neutralizing antibody (2.5 µg/ml), or 0% serum DMEM exposed to rSELP and anti-CD24 neutralizing antibody (2.5 µg/ml) for 24 h. Alternatively, macrophages were seeded in 96 well plates (5 × 10^5 cells/ml) treated with macrophages medium, macrophages medium supplemented with rSELP (3.5 µg/ml), macrophages medium supplemented with rSELP and SELPi (0.5 µM), macrophages medium supplemented with rSELP and anti-PSGL-1 neutralizing antibody (2.5 µg/ml), macrophages medium supplemented with rSELP and anti-CD44 neutralizing antibody (2.5 µg/ml) or macrophages medium supplemented with rSELP and anti-CD24 neutralizing antibody (2.5 µg/ml) for 24 h. Medium was then collected for evaluation of nitrite levels by the Total Nitric Oxide and Nitrate/Nitrite Parameter Assay Kit. Optical density was measured by a SpectraMax M5e multi-detection microplate reader system (Molecular Devices).

human microglia = test: Flow cytometry of CD163 and CD206 expression by microglia; format: cell-based; conditions: PD-GB4 CM with rSELP, or SELPi added to PD-GB4 CM
Method: as §1

U251 tumors = test: SELPi treatment in human U251 GB model; format: in vivo, SCID mice
Method: SELPi (0.8 mg/ml) was dissolved in DMSO 0.01%), polyethyleneglycol (93.2 mg/ml), Tween-80 (14.8 mg/ml), and DDW. Mice were treated intravenously (IV) twice a week with PBS, 16 mg/kg SELPi or vehicle (0.01% DMSO, 93.2 mg/ml polyethyleneglycol and 14.8 mg/ml Tween-80 in DDW). Tumor development was followed by monitoring the fluorescence intensity using the CRI Maestro™ imaging system.
Intravital imaging. The CRI Maestro™ non-invasive fluorescence imaging system was used to follow tumor progression in mice bearing mCherry- or iRFP- labeled U251 tumors. Mice were anesthetized by ketamine (150 mg/kg) and xylazine (12 mg/kg) injected IP, and were placed inside the imaging system. Multispectral image-cubes were used through 550-800 nm spectral range in 10 nm steps using excitation (575-605 nm) and emission (645 nm longpass) filter set. Mice autofluorescence and background signals were eliminated by spectral analysis and by applying a linear unmixing algorithm.

COc1ccc(C2CC(c3c(O)cc(C)oc3=O)=NCCS2)c(OC)c1 (stereo not drawn) [SELPi, 3-[7-(2,4-Dimethoxyphenyl)-2,3,6,7-tetrahydro-1,4-thiazepin-5-yl]-4-hydroxy-6-methyl-2H-pyran-2-one]
toxicity (U251 and PD-GB4 GB cells; 0.5 µM SELPi (working concentration)): no toxicity was observed
percentage of apoptotic cells (U251 and PD-GB4 GB cells; 5 and 10 µM SELPi, 72 h): slight increase in the percentage of apoptotic cells
restoration of NO levels (primary human microglia): restored
CD206 expression (human microglia): reduced CD206 expression
blood vessel density (CD31) (U251 tumors; U251 tumors): reduction
invasion of GB cells (H&E) (U251 tumors; U251 tumors): reduced
microglia activation (Iba1) (U251 tumors; U251 tumors): reduction
proliferation of GB cells (Ki-67) (U251 tumors; U251 tumors): reduced
tumor growth (fluorescence signal, CRI-Maestro) (U251 tumors; iRFP-labeled U251, 16 mg/kg SELPi IV twice a week): reduced the fluorescence signal; also recorded: delayed tumor growth
